Common to all, as to format: functional
Experiment [1] has as its system Sogatella furcifera. In words: Antifeedant activity against fourth-instar nymph stage of Sogatella furcifera in tillering to booting period rice seedlings.
The subject of experiment [2] is Plutella xylostella. Description: Contact toxicity against third-instar larval stage of Plutella xylostella (diamondback moth) applied topically measured per insect.
For experiment [3], the system named is Sogatella furcifera. In words: Contact toxicity against macropterous female Sogatella furcifera applied topically measured per insect.
In experiment [4] the test system is Plutella xylostella. Description: Antifeedant activity against third-instar larval stage of Plutella xylostella (diamondback moth) in cabbage mustard leaves.
The subject of experiment [5] is Nilaparvata lugens. Description: Antifeedant activity against fourth-instar nymph stage of Nilaparvata lugens (brown planthopper) in tillering to booting period rice seedlings.
For experiment [6], the system named is Spodoptera litura. Description: Antifeedant activity against third-instar larval stage of Spodoptera litura in cabbage mustard leaves.
For experiment [7], the system named is Nilaparvata lugens. In words: Contact toxicity against macropterous female Nilaparvata lugens (brown planthopper) applied topically measured per insect.
In experiment [8] the test system is Spodoptera litura. Description: Contact toxicity against third-instar larval stage of Spodoptera litura applied topically measured per insect.

Bounds are passed on as bounds.

`CC(C)[C@@H]1[C@H](O)[C@H]2C(C)(CO)[C@@]3(O)CC[C@@H](C)[C@H]3[C@H]3OC[C@]1(C)[C@]32O` (stereo not given in full) [13-DEOXYITOL A]: the AFC50 in the experiment with Sogatella furcifera [1] stood at 23.5 µg/mL; in the experiment on Plutella xylostella [4], 29.3 µg/mL; with Nilaparvata lugens [5], 38.9 µg/mL; with Spodoptera litura [6], 50.1 µg/mL. Moreover, the LD50 with Plutella xylostella [2] is 0.22 µg; in the experiment on Sogatella furcifera [3] it was more than 2 µg; in the experiment with Nilaparvata lugens [7], more than 2 µg; in the experiment on Spodoptera litura [8], 0.22 µg.

Turning to `C/C=C(\C)C(=O)O[C@H]1C[C@@H](OC(C)=O)[C@@]2(C(=O)OC)CO[C@H]3[C@@H](O)[C@@](C)([C@]45O[C@@]4(C)[C@@H]4C[C@H]5O[C@@H]5OC=C[C@@]54O)[C@H]4[C@]1(CO[C@]4(O)C(=O)OC)[C@@H]32` [AZADIRACHTIN A], the AFC50 in the experiment on Sogatella furcifera [1] is 7 µg/mL; in the experiment on Plutella xylostella [4] it was 9.3 µg/mL; in the experiment on Nilaparvata lugens [5], 7.5 µg/mL; in the experiment on Spodoptera litura [6], 9.8 µg/mL.

In the case of `CC(C)[C@@]1(O)[C@H](O)[C@@H]2[C@@]3(O)[C@@H]4O[C@@](O)(C[C@@]2(C)[C@@]2(O)CC[C@@H](C)[C@@H]42)[C@]31C` [ITOL A], the AFC50 in the experiment on Sogatella furcifera [1] was 29.3 µg/mL; in the experiment on Plutella xylostella [4] it was 22.5 µg/mL; with Nilaparvata lugens [5], 34.8 µg/mL; with Spodoptera litura [6], 47.5 µg/mL. In addition, the LD50 in the experiment on Plutella xylostella [2] is 0.22 µg; in the experiment on Sogatella furcifera [3], more than 2 µg; in the experiment with Nilaparvata lugens [7], more than 2 µg; in the experiment on Spodoptera litura [8] it was 0.22 µg.
